This note sets out measurements from PubChem BioAssay (NCI).

SMILES strings stand for the structures.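 Protocol summary: plate cells (96-well), add compound at 5 concentrations, incubate 48 h, interpolate endpoints linearly. Abbreviation: GI50, concentration required for 50% inhibition of growth. TGI marks complete inhibition of growth.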

Holding throughout (assay): inhibition of tumour cell growth, NCI panel, 48 h
Assay [1] deals with UO-31 renal.
The subject of assay [2] is MOLT-4 leukemia.
The subject of assay [3] is NCI-H460 lung.
The subject of assay [4] is SNB-75 CNS.
Assay [5] relates to M14 melanoma.
In assay [6] the test system is SK-MEL-5 melanoma.
Assay [7] concerns SN12C renal.
Assay [8] deals with MDA-MB-231 breast.
For assay [9], the system named is HCT-116 colon.
Assay [10] deals with SK-MEL-28 melanoma.

Regarding `O=C(CCc1ccc(O)c(O)c1)NCCc1ccc(O)c(O)c1`, the TGI in assay [1], in assay [2], in [3], in assay [4], in [5] and in assay [6] was > 100 µM each time. Also, the TGI in assay [7] is > 100 µM; in assay [8] it was 73.9 µM; in assay [9], > 100 µM; in assay [10], > 100 µM.
Turning to `O=C1c2ccccc2-c2nnc(-c3ccc(Cl)cc3)cc21`, the TGI in [1], in assay [2], in assay [3], in assay [4], in assay [5] and in [6] was > 10 µM each time. Besides, the TGI in [7], in assay [8], in assay [9] and in [10] was > 10 µM each time.
`CCOc1cc2c(cc1O)CC[C@@H]1[C@@H]2CC[C@]2(C)C(OS(=O)OC3CC[C@@H]4[C@H]5CCc6cc(O)c(OCC)cc6[C@@H]5CC[C@@]34C)CC[C@@H]12` (stereo partly specified): the TGI in assay [1] is 27.4 µM; in assay [2], > 68 µM; in [3], > 34.2 µM; in assay [4] it was 34.4 µM; in assay [5], 2.58 µM; in assay [6], 3.84 µM. Further, the TGI in assay [7] is 28.9 µM; in assay [8], 29.8 µM; in assay [9], > 39.6 µM; in assay [10], 11.7 µM.
Turning to `Clc1cc(OCC23CC4CC(CC(C4)C2)C3)nc(OCC23CC4CC(CC(C4)C2)C3)n1`, the TGI in [1], in assay [2], in assay [3], in [4], in assay [5] and in [6] was > 100 µM each time. In addition, the TGI in assay [7], in assay [8], in [9] and in assay [10] was > 100 µM throughout.
As for `COC(=O)c1c(O)ccc2c1c1c(n2Cc2ccccc2OC)C(=O)c2ccccc2C1`, the TGI in assay [1], in assay [2], in assay [3], in assay [4], in assay [5] and in [6] was > 100 µM in each case. Also, the TGI was 74.9 µM in assay [7], > 100 µM in assay [8], > 100 µM in assay [9] and > 100 µM in assay [10].
Turning to `Cc1[nH]c(=O)nc2nc3ccc(Cl)cc3c(NC(C)(CO)CO)c12`, the TGI in assay [1] was 10.4 µM; in [2], > 100 µM; in assay [3], > 100 µM; in [4], > 96.5 µM; in assay [5] it was > 100 µM; in [6] it was > 100 µM. The TGI in assay [7] was > 100 µM; in assay [8] it was > 81 µM; in assay [9], > 100 µM; in assay [10] it was > 100 µM.
In the case of `NC(=O)C[C@H](NC(=O)C1(NC(=O)[C@H](Cc2ccc(CP(=O)(O)O)cc2)NC(=O)C(=O)O)CCCCC1)C(=O)NCCCc1cccc2ccccc12`, the TGI in [1], in [2], in assay [3], in assay [4], in assay [5] and in assay [6] was > 10 µM in each case. Moreover, the TGI in assay [7], in assay [8], in assay [9] and in assay [10] was > 10 µM in each case.
Turning to `Cc1nc2c(Cl)cc(Cl)cc2c(Cl)c1CCCl`, the TGI in assay [1], in assay [2], in [3], in [4], in assay [5] and in assay [6] was > 100 µM each time. Moreover, the TGI in assay [7], in assay [8], in [9] and in assay [10] was > 100 µM each time.
`CCCCC1(N=[N+]=[N-])C(=O)C2C=CC=C3c4ccccc4N(C1=O)C32` (stereo unspecified): the TGI is > 31.6 µM in [1]; > 31.6 µM in assay [2]; > 31.6 µM in assay [3]; 23.1 µM in assay [4]; > 31.6 µM in [5]; > 31.6 µM in assay [6]. Also, the TGI was > 31.6 µM in [7], > 31.6 µM in assay [8], > 31.6 µM in [9] and > 100 µM in assay [10].
Consider `O=C(O)CN(CC(=O)O)Cc1ccn(-c2cccc(-n3ccc(CN(CC(=O)O)CC(=O)O)n3)n2)n1`, for which the TGI in [1], in assay [2], in assay [3], in assay [4], in assay [5] and in [6] was > 100 µM in each case. Also, the TGI in assay [7], in [8], in [9] and in assay [10] was > 100 µM in each case.
With `O=[N+]([O-])c1ccc2nc(/C=C(\O)c3ccccc3)c(/C=C(\O)c3ccccc3)nc2c1`, the TGI was 31.6 µM in [1]; 40.5 µM in assay [2]; > 81 µM in assay [3]; 32.1 µM in [4]; > 67.3 µM in assay [5]; > 39.2 µM in assay [6]. For the same molecule, the TGI in assay [7] was > 100 µM; in [8] it was 39.4 µM; in assay [9] it was > 37.8 µM; in assay [10] it was > 100 µM. In addition, the GI50 in assay [10] was 8.3 µM.
Turning to `CCCCCCCCCCCCCCCCCCOc1ccc(/C=C/C2=[N+](CCCl)CCO2)cc1`, the TGI in [1], in assay [2], in [3], in assay [4], in [5] and in assay [6] was > 100 µM each time. The TGI in [7], in assay [8], in [9] and in [10] was > 100 µM each time.
Turning to `COc1cc(/C=C2\N=C(C)N(n3c(-c4ccccc4)nc4ccccc4c3=O)C2=O)cc(OC)c1OC`, the TGI in assay [1], in assay [2], in [3], in assay [4], in [5] and in assay [6] was > 100 µM each time. Further, the TGI in assay [7], in assay [8], in [9] and in assay [10] was > 100 µM in each case.
On to `Cc1oncc1NC1=CC(=O)C(=O)c2ccccc21`, for which the TGI in [1] is 27.9 µM; in assay [2], 11.9 µM; in assay [3] it was 20.3 µM; in [4] it was 27.2 µM; in [5], 17 µM; in [6] it was 3.68 µM. Besides, the TGI was 17.1 µM in [7], 32.8 µM in [8], 10.6 µM in assay [9] and 29.2 µM in [10].
On to `COc1cc(O)c2c(=O)c(OC)c(-c3ccc4c(c3)OCO4)oc2c1OC`, for which the TGI is > 50 µM in [1]; > 50 µM in [2]; > 50 µM in [3]; 31.9 µM in assay [4]; > 50 µM in assay [5]; > 50 µM in assay [6]. For the same molecule, the TGI in assay [7], in [8], in assay [9] and in [10] was > 50 µM throughout.
As to `CO[C@H]1C[C@H](n2cc(C)c(=O)[nH]c2=O)O[C@@H]1CO`, the TGI in assay [1], in assay [2], in assay [3], in assay [4], in [5] and in assay [6] was > 100 µM each time. Moreover, the TGI in assay [7], in [8], in assay [9] and in assay [10] was > 100 µM each time.
For the molecule `O=C(Cn1c(=O)oc2ccc(C(=O)c3ccccc3Cl)cc21)c1ccc([N+](=O)[O-])cc1`, the TGI is > 100 µM in assay [1]; > 100 µM in assay [2]; 55.7 µM in [3]; > 100 µM in [4]; 47.5 µM in assay [5]; 40.5 µM in [6]. Further, the TGI is 65.5 µM in assay [7], 79.7 µM in assay [8], 35.6 µM in assay [9] and > 100 µM in [10].
As to `COP(=O)(OC)c1ccc(NCc2cc(O)ccc2O)cc1`, the TGI is 29.3 µM in assay [1]; > 86.3 µM in assay [2]; 45.4 µM in [3]; > 77.7 µM in assay [4]; > 61.1 µM in assay [5]; 47.2 µM in assay [6]. In addition, the TGI in [7] is > 70.6 µM; in assay [8], > 57.8 µM; in assay [9], > 59.7 µM; in assay [10], > 70.2 µM.
Regarding `Cc1cc2c(cc1-c1cc3c(cc1C)C(C(C)C)=C(O)C(=O)/C3=C\Nc1c(C)n(C)n(-c3ccccc3)c1=O)/C(=C/Nc1c(C)n(C)n(-c3ccccc3)c1=O)C(=O)C(O)=C2C(C)C`, the TGI in [1], in assay [2], in assay [3], in [4], in [5] and in [6] was > 100 µM throughout. For the same molecule, the TGI in assay [7], in [8], in assay [9] and in [10] was > 100 µM throughout.
Regarding `COc1ccc(CCNC(=O)CCCCCO)cc1OC`, the TGI in [1], in [2], in assay [3], in assay [4], in assay [5] and in assay [6] was > 100 µM each time. Further, the TGI in assay [7], in assay [8], in assay [9] and in assay [10] was > 100 µM each time.
With `CN(C)CCNC(=O)c1cccc2[nH]c(-c3ccncc3)nc12`, the TGI in assay [1] is 6.76 µM; in [2] it was > 100 µM; in assay [3], 8.22 µM; in assay [4] it was 26.5 µM; in assay [5] it was 3.39 µM; in [6] it was 7.27 µM. Besides, the TGI in assay [7] is > 76.3 µM; in assay [8], 9.74 µM; in assay [9] it was 9.82 µM; in assay [10], 3.93 µM.
For the molecule `NC(=O)c1ncn2c(=O)n(CCl)nnc12`, the TGI in [1], in [2], in [3], in [4], in assay [5] and in assay [6] was > 100 µM in each case. Also, the TGI in assay [7], in assay [8], in assay [9] and in assay [10] was > 100 µM each time.
Take `S=c1nc2sc3c(c2c(Nc2ccc(Br)cc2)[nH]1)CCN(N1CCc2c(sc4nc(=S)[nH]c(Nc5ccc(Br)cc5)c24)C1)C3`: the TGI was > 50 µM in [1]; > 50 µM in assay [2]; > 50 µM in [3]; > 50 µM in assay [4]; 17.1 µM in assay [5]; > 50 µM in assay [6]. Also, the TGI is > 50 µM in assay [7], > 50 µM in [8], > 50 µM in assay [9] and 31 µM in [10].
With `CSC1(SC)N2Cc3ccccc3N=C2C1(c1ccccc1)c1ccccc1`, the TGI in [1] is > 100 µM; in assay [2], > 44.9 µM; in assay [3], 64.3 µM; in [4], > 100 µM; in assay [5], > 100 µM; in [6], 28.8 µM. Moreover, the TGI in assay [7] was > 64.1 µM; in assay [8], > 100 µM; in [9], > 100 µM; in assay [10], > 59.5 µM.
